Experimental data taken from patent publication US20090130165A1, “MIF Inhibitors” (Cortical Pty Ltd, priority 2005, published 2009).
≈ marks a conversion by molar mass, not a printed value.

Experiments:
[1] = test system: LPS-induced IL-6 production in RAW264.7 mouse macrophage cell line; test: Inhibition of LPS-induced production of IL-6 in RAW264.7 macrophages; format: cell-based; conditions: 50 uM compound, 100 ng/ml LPS 4 hr, RAW264.7 cells, relative to LPS+DMSO control
Method: MIF is an important factor in the innate immune response to toxins such as the bacterial endotoxin lipopolysaccharide (LPS). […] A compound with the ability to inhibit the biological activity of MIF would therefore inhibit the activation of cytokine production by macrophages in response to LPS. The RAW264.7 mouse macrophage cell line was propagated in DMEM/10% foetal calf serum (FCS) at 37° C. in 5% CO2. 24 hr prior to assay cells were seeded in 96-well tissue culture plates. Cells were allowed to adhere for 4 hr prior to transfer to DMEM/0.5% FCS for 18 hr. Cells were then treated with 50 uM compound in DMSO for 30 min prior to stimulation for 4 hr with 100 ng/ml LPS. Cell culture supernatants were then collected from each well and assayed for IL-6 levels by ELISA (R&D Systems) according to the manufacturer's instructions.

[2] = target: T1, Recombinant human MIF protein (Homo sapiens, UniProt P14174); test: Inhibition of MIF tautisomerase activity (L-dopachrome); format: biochemical; conditions: mean±standard deviation of 2-4 experiments; for inhibition at 50 µM: 50 uM compound; for inhibition at 100 µM: 100 uM compound
T1 sequence (P14174 2-115 limits assumed): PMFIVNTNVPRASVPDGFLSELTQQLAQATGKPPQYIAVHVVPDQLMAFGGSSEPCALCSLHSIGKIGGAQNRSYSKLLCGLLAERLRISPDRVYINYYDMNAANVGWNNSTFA
Method: MIF protein has the ability in vitro to catalyze the tautisomerization of dopachrome^(15).
Recombinant human MIF protein was pre-incubated with compounds as indicated prior to the addition of L-dopachrome substrate. Tautomerase activity was determined by measurement of die decrease in absorbance at 475 nm after 2 min. […]

[3] = Lower limits of aqueous solubility by nephelometry; format: physicochemical; conditions: phosphate-buffered saline with 0.005% (v/v) P20 and 5% DMSO, aqueous with cosolvent or surfactant or cyclodextrin, kinetic from dmso stock, 0.005% (v/v) P20, 5% DMSO, read-out: Solubility Lower Limit Range
Method: Lower limits of aqueous compound solubility were determined in a nepholometer in phosphate-buffered saline containing 0.005% (v/v) P20 and a final concentration of 5% DMSO. Briefly, compounds were initially dissolved in DMSO as a 10 mM stock solution and diluted to 1 mM and 0.5 mM working solutions with neat DMSO. The compounds were then titrated in DMSO and a constant volume of DMSO stock added to filtered PBS/P20 solution so that the final DMSO concentration was 5%. The solubility was then determined in clear, flat-bottom 96-well plates using the nephelometer and reported as the concentration range at which the compound begins to precipitate from solution.

[4] = test system: C57Bl/6j mice; test: In vivo assay of MIF antagonism: murine endotoxic shock model, serum TNF; parameters: species or system mouse; conditions: intra-peritoneal, 10, 1 and 0.1 mg/kg at 24 hours and 1 hour before LPS 1 mg/kg (FIG. 3)
Method: The activities of compounds were studied in the murine endotoxic shock model. This model has been previously shown to be dependent on MIF^(14). Administration of a compound which inhibits the cytokine activity of MIF would be expected to result hi a reduction in serum level s of the pro-inflammatory cytokine TNF.
Endotoxaemia was induced by intra-peritoneal Injection of C57Bl/6j mice with lipopolysaccharide (LPS) (1 mg/kg) in 200 μl saline. Animals were treated with either a saline solution (control) only, or LPS with vehicle or compounds B1 and A3 in vehicle at doses of 10, 1 and 0.1 mg/kg body weight, administered by intra-peritoncal injection at 24 hours and 1 hour before intra-peritoneal LPS injection. After 1 hour mice were humanely killed by CO2 inhalation then neck dislocation. Serum was obtained from blood obtained by cardiac puncture prior to death and measured for TNF levels by ELISA according to the manufacturer's instructions.

Row | SMILES | melting point | inhibition at 50 µM [2] [%] | inhibition at 100 µM [2] [%] | inhibition at 50 µM [1] [%] | also measured
1 | O=C1Cc2cc(C(=O)CSCCCCCCO)ccc2N1 [Compound 9, 5-(((6-hydroxyhexyl)thio)acetyl)-1,3-dihydro-2H-indol-2-one] | 105 to 108 °C | – | – | – | –
2 | O=C1Cc2cc(C(=O)CSCCCCCCO)c(Cl)cc2N1 [Compound 11, 6-chloro-5-(((6-hydroxyhexyl)thio)acetyl)-1,3-dihydro-2H-indol-2-one] | – | – | – | 48 ± 24 | –
3 | CCCCSCC(=O)c1ccc2[nH]c(=O)oc2c1 [Compound 16, 6-((Butylthio)acetyl)-1,3-benzoxazol-2(3H)-one] | – | – | – | 12 ± 63 | –
4 | O=C(O)CSCC(=O)c1ccc2[nH]c(=O)oc2c1 [Compound 17, ((2-Oxo-2-(2-oxo-2,3-dihydro-1,3-benzoxazol-6-yl)ethyl)thio)acetic acid] | – | – | – | 8 ± 90 | –
5 | O=C(CSCCCCCCO)c1ccc2[nH]c(=O)oc2c1 [Compound 15, 6-(((6-Hydroxyhexyl)thio)acetyl)-1,3-benzoxazol-2(3H)-one] | – | – | – | 42 ± 40 | solubility [3]: 77 to 250 µg/mL (≈ 249 to 808 µM); suppression of LPS-induced serum TNF levels, in words [4]: significant dose-dependent suppression
6 | O=C(O)CCSCC(=O)c1ccc2[nH]c(=O)oc2c1 [Compound 14, 3-((2-Oxo-2-(2-oxo-2,3-dihydro-1,3-benzoxazol-6-yl)ethyl)thio)propanoic acid] | – | – | – | – | solubility [3]: > 140 µg/mL
7 | CCCCSCC(=O)c1ccc2c(c1)n(C)c(=O)n2C [Compound 24, 5-((butylthio)acetyl)-1,3-dimethyl-1,3-dihydro-2H-benzimidazol-2-one] | 80 to 81 °C | 15 ± 6 | 34 ± 12 | – | –
8 | O=C(O)CCSCC(=O)c1ccc2[nH]c(=O)sc2c1 [Compound 18, 3-((2-Oxo-2-(2-oxo-23-dihydro-1,3-benzothiazol-6-yl)ethyl)thio)propanoic acid] | – | – | – | 49 ± 34 | –
9 | COC(=O)CCSCC(=O)c1ccc2c(c1)CC(=O)N2 [Compound 1, methyl 3-((2-oxo-2-(2-oxo-2,3-dihydro-1H-indol-5-yl)ethyl)thio)propanoate] | 106 to 108 °C | – | – | 13 ± 23 | solubility [3]: 18 to 63 µg/mL (≈ 61.4 to 215 µM)
10 | CCCCSCC(=O)c1cc2c(cc1Cl)NC(=O)C2 [Compound 20, 5-((Butylthio)acetyl)-6-chloro-1,3-dihydro-2H-indol-2-one] | – | – | – | 59 ± 11 | –
11 | CC(=O)OCCCCCCSCC(=O)c1ccc2c(c1)CC(=O)N2 [Compound 8, 6-((2-oxo-2-(2-oxo-2,3-dihydro-1H-indol-5-yl)ethyl)thio)hexyl acetate] | 86 to 87 °C | – | – | 42 ± 11 | –
12 | CCCCSCC(=O)c1ccc2c(c1)CC(=O)N2 [Compound 21, 5-((Butylthio)acetyl)-1,3-dihydro-2H-indol-2-one] | – | – | – | 41 ± 54 | –
13 | Cn1c(=O)n(C)c2cc(C(=O)CSCCC(=O)O)ccc21 [Compound 23, 3-((2-(1,3-dimethyl-2-oxo-2,3-dihydro-1H-benzimidazol-5-yl)-2-oxoethyl)thio) propanoic acid] | 174 to 176 °C | 0 | 3 ± 2 | – | –
14 | Cn1c(=O)n(C)c2cc(C(=O)CSCCC(=O)O)c(Cl)cc21 [Compound 28, 3-((2-(6-chloro-1,3-dimethyl-2-oxo-2,3-dihydro-1H-benzimidazol-5-yl)-2-oxoethyl)thio)propanoic acid] | 148 to 150 °C | 12 ± 6 | 27 ± 6 | – | –

Now from value to compound, other results behind:

Row | melting point | inhibition at 50 µM [2] [%] | inhibition at 100 µM [2] [%] | SMILES | inhibition at 50 µM [1] [%] | also measured
15 | 177 to 178.5 °C | – | – | COC(=O)CSCC(=O)c1ccc2[nH]c(=O)[nH]c2c1 [Compound 5, methyl ((2-oxo-2-(2-oxo-2,3-dihydro-1H-benzimidazol-5-yl)ethyl)thio)acetate] | – | –
16 | 199 to 201 °C | 4 ± 3 | 12 ± 4 | CCCCSCC(=O)c1cc2[nH]c(=O)[nH]c2cc1Cl [Compound 25, 5-((butylthio)acetyl)-6-chloro-1,3-dihydro-2H-benzimidazol-2-one] | – | –
17 | 230 °C (dec.) | – | – | O=C(O)CSCC(=O)c1ccc2[nH]c(=O)[nH]c2c1 [Compound 6, ((2-oxo-2-(2-oxo-2,3-dihydro-1H-benzimidazol-5-yl)ethyl)thio)acetic acid] | – | solubility [3]: 67 to 250 µg/mL (≈ 252 to 939 µM)
18 | 75 to 77 °C | – | – | COC(=O)CCSCC(=O)c1cc2c(cc1Cl)NC(=O)C2 [Compound 12, methyl 3-((2-(6-chloro-2-oxo-2,3-dihydro-1H-indol-5-yl)-2-oxoethyl)thio)propanoate] | 60 | –
19 | – | 2 ± 3 | 4 ± 6 | O=C(O)CCSCC(=O)c1cc2[nH]c(=O)[nH]c2cc1Cl [Compound 26, 3-((2-(6-chloro-2-oxo-2,3-dihydro-1H-benzimidazol-5-yl)-2-oxoethyl)thio)propanoic acid] | – | –
20 | – | 2 ± 3 | 8 ± 8 | CCCCSCC(=O)c1cc2sc(=O)n(C)c2cc1Cl [Compound 31, 6-((butylthio)acetyl)-5-chloro-3-methyl-1,3-benzothiazol-2(3H)-one] | – | –
21 | 195 to 197 °C | 12 ± 11 | 27 ± 16 | O=C(O)CCSCC(=O)c1cc2sc(=O)[nH]c2cc1Cl [Compound 30, 3-((2-(5-chloro-2-oxo-2,3-dihydro-1,3-benzothiazol-6-yl)-2-oxoethyl)thio)propanoic acid] | – | –
22 | 120 to 121 °C | 4 ± 1 | 11 ± 4 | Cn1c(=O)sc2cc(C(=O)CSCCC(=O)O)c(Cl)cc21 [Compound 32, 3-((2-(5-chloro-3-methyl-2-oxo-2,3-dihydro-1,3-benzothiazol-6-yl)-2-oxoethyl)thio)propanoic acid] | – | –
23 | 180 to 181 °C | – | – | O=C(CSCCCCCCO)c1ccc2[nH]c(=O)[nH]c2c1 [Compound 10, 5-(((6-hydroxyhexyl)thio)acetyl)-1,3-dihydro-2H-benzimidazol-2-one] | 25 | –
24 | – | 28 ± 17 | 44 ± 12 | CCCCSCC(=O)c1cc2c(cc1Cl)n(C)c(=O)n2C [Compound 27, 5-((butylthio)acetyl)-6-chloro-1,3-dimethyl-1,3-dihydro-2H-benzimidazol-2-one] | – | –
25 | 320 °C (dec.) | – | – | O=C(CSCCO)c1ccc2[nH]c(=O)[nH]c2c1 [Compound 7, 5-(((2-hydroxyethyl)thio)acetyl)-1,3-dihydro-2H-benzimidazol-2-one] | – | –
26 | 211 to 213 °C | 4 ± 6 | 4 ± 7 | CCCCSCC(=O)c1ccc2[nH]c(=O)[nH]c2c1 [Compound 22, 5-((butylthio)acetyl)-1,3-dihydro-2H-benzimidazol-2-one] | – | –
27 | 102.5 to 115 °C | 24 ± 1 | 42 ± 9 | CCCCSCC(=O)c1cc2sc(=O)[nH]c2cc1Cl [Compound 29, 6-((butylthio)acetyl)-5-chloro-1,3-benzothiazol-2(3H)-one] | – | –
